Test: Solubility in aqueous medium (buffers at pH 1.2, 4.5, 6.8)
Assay type: physicochemical
Conditions: Form T8 in comparison with Form A

solubility in aqueous medium (pH 4.5 (acetate buffer)) | solubility in aqueous medium (pH 6.8 (phosphate buffer)) | solubility in aqueous medium (pH=1.2 (HCl buffer)) | Compound
practically insoluble | practically insoluble | practically insoluble | O=C(/C=C\n1cnc(-c2cc(C(F)(F)F)cc(C(F)(F)F)c2)n1)NNc1cnccn1 [Form A, (Z)-3-(3-(3,5-bis(trifluoromethyl)phenyl)-1H-1,2,4-triazol-1-yl)-N′-(pyrazin-2-yl) acrylohydrazide]
enhanced solubility | enhanced solubility | enhanced solubility | O=C(/C=C\n1cnc(-c2cc(C(F)(F)F)cc(C(F)(F)F)c2)n1)NNc1cnccn1 [Form T8, (Z)-3-(3-(3,5-bis(trifluoromethyl)phenyl)-1H-1,2,4-triazol-1-yl)-N′-(pyrazin-2-yl) acrylohydrazide]

From patent US10993943B2, “Crystalline forms of selinexor and process for their preparation” (WATSON LABORATORIES INC., priority 2017, dated 2021)
